Source: PubChem BioAssay (NCI)
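All cell lines were grown in 96-well plates and treated with compound for 48 hours. TGI: total growth inhibition.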

How the values were obtained:
Assay in all cases: NCI anticancer screen, dose series, 48 h
786-0 renal = test system: 786-0 renal
A498 renal = test system: A498 renal
A549 NSCLC = test system: A549 NSCLC
ACHN renal = test system: ACHN renal
CAKI-1 renal = test system: CAKI-1 renal
CCRF-CEM leukemia = test system: CCRF-CEM leukemia
COLO 205 colon = test system: COLO 205 colon
DU-145 prostate = test system: DU-145 prostate
EKVX NSCLC = test system: EKVX NSCLC
HCC-2998 colon = test system: HCC-2998 colon
HCT-116 colon = test system: HCT-116 colon
HCT-15 colon = test system: HCT-15 colon
HL-60(TB) leukemia = test system: HL-60(TB) leukemia
HOP-62 NSCLC = test system: HOP-62 NSCLC
HOP-92 NSCLC = test system: HOP-92 NSCLC
HS 578T breast = test system: HS 578T breast
HT29 colon = test system: HT29 colon
IGROV1 ovarian = test system: IGROV1 ovarian
K-562 leukemia = test system: K-562 leukemia
KM12 colon = test system: KM12 colon
LOX IMVI melanoma = test system: LOX IMVI melanoma
M14 melanoma = test system: M14 melanoma
MALME-3M melanoma = test system: MALME-3M melanoma
MCF7 breast = test system: MCF7 breast
MDA-MB-435 = test system: MDA-MB-435
MDA-N = test system: MDA-N
MOLT-4 leukemia = test system: MOLT-4 leukemia
NCI-H226 lung = test system: NCI-H226 lung
NCI-H23 lung = test system: NCI-H23 lung
NCI-H460 lung = test system: NCI-H460 lung
NCI-H522 lung = test system: NCI-H522 lung
NCI/ADR-RES ovarian = test system: NCI/ADR-RES ovarian
OVCAR-3 ovarian = test system: OVCAR-3 ovarian
OVCAR-4 ovarian = test system: OVCAR-4 ovarian
OVCAR-5 ovarian = test system: OVCAR-5 ovarian
OVCAR-8 ovarian = test system: OVCAR-8 ovarian
PC-3 prostate = test system: PC-3 prostate
RPMI-8226 leukemia = test system: RPMI-8226 leukemia
RXF 393 renal = test system: RXF 393 renal
SF-268 CNS = test system: SF-268 CNS
SF-295 CNS = test system: SF-295 CNS
SF-539 CNS = test system: SF-539 CNS
SK-MEL-2 melanoma = test system: SK-MEL-2 melanoma
SK-MEL-28 melanoma = test system: SK-MEL-28 melanoma
SK-MEL-5 melanoma = test system: SK-MEL-5 melanoma
SK-OV-3 ovarian = test system: SK-OV-3 ovarian
SN12C renal = test system: SN12C renal
SNB-19 CNS = test system: SNB-19 CNS
SNB-75 CNS = test system: SNB-75 CNS
SW-620 colon = test system: SW-620 colon
T-47D breast = test system: T-47D breast
TK-10 renal = test system: TK-10 renal
U251 CNS = test system: U251 CNS
UACC-257 melanoma = test system: UACC-257 melanoma
UACC-62 melanoma = test system: UACC-62 melanoma
UO-31 renal = test system: UO-31 renal
MDA-MB-231 breast = test system: MDA-MB-231 breast
SR leukemia = test system: SR leukemia

C=C1C(=O)O[C@@H]2/C=C(C)/C=C\[C@@H]3O[C@@]3(C)C[C@@H](O)C12 (stereo partly specified)
TGI (786-0 renal): 21.1 µM | TGI (A498 renal): 30.4 µM | TGI (A549 NSCLC): > 100 µM | TGI (ACHN renal): 18.3 µM | TGI (CAKI-1 renal): 21 µM | TGI (CCRF-CEM leukemia): 4.93 µM | TGI (COLO 205 colon): 21.1 µM | TGI (DU-145 prostate): 14.5 µM | TGI (EKVX NSCLC): 20.2 µM | TGI (HCC-2998 colon): 33.1 µM | TGI (HCT-116 colon): 20.6 µM | TGI (HCT-15 colon): 27.6 µM | TGI (HL-60(TB) leukemia): 8.93 µM | TGI (HOP-62 NSCLC): > 100 µM | TGI (HOP-92 NSCLC): 20.4 µM | TGI (HS 578T breast): > 100 µM | TGI (HT29 colon): 26.2 µM | TGI (IGROV1 ovarian): 28.6 µM | TGI (K-562 leukemia): 20.6 µM | TGI (KM12 colon): 31.8 µM | TGI (LOX IMVI melanoma): 22.2 µM | TGI (M14 melanoma): 49.2 µM | TGI (MALME-3M melanoma): 30.9 µM | TGI (MCF7 breast): 26.4 µM | TGI (MDA-MB-435): 39.6 µM | TGI (MDA-N): > 100 µM | TGI (MOLT-4 leukemia): 30.1 µM | TGI (NCI-H226 lung): 29.7 µM | TGI (NCI-H23 lung): 33.3 µM | TGI (NCI-H460 lung): 73.3 µM | TGI (NCI-H522 lung): 19.6 µM | TGI (NCI/ADR-RES ovarian): 33.4 µM | TGI (OVCAR-3 ovarian): 29.8 µM | TGI (OVCAR-4 ovarian): 38.2 µM | TGI (OVCAR-5 ovarian): 85.4 µM | TGI (OVCAR-8 ovarian): 55.1 µM | TGI (PC-3 prostate): 73.2 µM | TGI (RPMI-8226 leukemia): 18.7 µM | TGI (RXF 393 renal): 76.4 µM | TGI (SF-268 CNS): 84.7 µM | TGI (SF-295 CNS): > 100 µM | TGI (SF-539 CNS): 26 µM | TGI (SK-MEL-2 melanoma): > 100 µM | TGI (SK-MEL-28 melanoma): 35.8 µM | TGI (SK-MEL-5 melanoma): 29 µM | TGI (SK-OV-3 ovarian): > 100 µM | TGI (SN12C renal): 30.4 µM | TGI (SNB-19 CNS): 42.5 µM | TGI (SNB-75 CNS): > 100 µM | TGI (SW-620 colon): 17.2 µM | TGI (T-47D breast): 23.6 µM | TGI (TK-10 renal): 16.1 µM | TGI (U251 CNS): 34.6 µM | TGI (UACC-257 melanoma): 28.1 µM | TGI (UACC-62 melanoma): 27.2 µM | TGI (UO-31 renal): 30.1 µM

N#Cc1nc(-c2cnccn2)oc1N
TGI (786-0 renal): > 100 µM | TGI (A498 renal): > 100 µM | TGI (A549 NSCLC): > 100 µM | TGI (ACHN renal): > 100 µM | TGI (CAKI-1 renal): > 100 µM | TGI (CCRF-CEM leukemia): > 100 µM | TGI (DU-145 prostate): > 100 µM | TGI (EKVX NSCLC): > 100 µM | TGI (HCT-116 colon): > 100 µM | TGI (HCT-15 colon): > 100 µM | TGI (HL-60(TB) leukemia): > 100 µM | TGI (HOP-62 NSCLC): > 100 µM | TGI (HOP-92 NSCLC): > 100 µM | TGI (HS 578T breast): > 100 µM | TGI (HT29 colon): > 100 µM | TGI (IGROV1 ovarian): > 100 µM | TGI (K-562 leukemia): > 100 µM | TGI (KM12 colon): > 100 µM | TGI (LOX IMVI melanoma): > 100 µM | TGI (M14 melanoma): > 100 µM | TGI (MCF7 breast): > 100 µM | TGI (MDA-MB-231 breast): > 100 µM | TGI (MDA-MB-435): > 100 µM | TGI (MDA-N): > 100 µM | TGI (MOLT-4 leukemia): > 100 µM | TGI (OVCAR-5 ovarian): > 100 µM | TGI (OVCAR-8 ovarian): > 100 µM | TGI (PC-3 prostate): > 100 µM | TGI (RPMI-8226 leukemia): > 100 µM | TGI (RXF 393 renal): > 100 µM | TGI (SF-268 CNS): > 100 µM | TGI (SK-MEL-2 melanoma): > 100 µM | TGI (SK-MEL-28 melanoma): > 100 µM | TGI (SK-MEL-5 melanoma): > 100 µM | TGI (SK-OV-3 ovarian): > 100 µM | TGI (SN12C renal): > 100 µM | TGI (SNB-19 CNS): > 100 µM | TGI (SNB-75 CNS): > 100 µM | TGI (SR leukemia): > 100 µM | TGI (SW-620 colon): > 100 µM | TGI (TK-10 renal): > 100 µM | TGI (U251 CNS): > 100 µM | TGI (UACC-257 melanoma): > 100 µM | TGI (UACC-62 melanoma): > 100 µM | TGI (UO-31 renal): > 100 µM
